Assay results: PMC12524789, “The Interplay Between CB2 and NMDA Receptors in Parkinson’s Disease” (International Journal of Molecular Sciences, 2025)
pKi: −log10 of the molar value.

Biological target: T1, cannabinoid receptor 2 (CB2R) (Homo sapiens, UniProt P34972)
T1 construct: gene CNR2; SNAP-tagged human CB2R in HEK-293T cells
Experiment: HTRF competition binding against […] fluorophore-conjugated CM157 in HEK-293T cells; also cAMP and β-arrestin II recruitment
Format: cell-based

T1 sequence (P34972 whole entry): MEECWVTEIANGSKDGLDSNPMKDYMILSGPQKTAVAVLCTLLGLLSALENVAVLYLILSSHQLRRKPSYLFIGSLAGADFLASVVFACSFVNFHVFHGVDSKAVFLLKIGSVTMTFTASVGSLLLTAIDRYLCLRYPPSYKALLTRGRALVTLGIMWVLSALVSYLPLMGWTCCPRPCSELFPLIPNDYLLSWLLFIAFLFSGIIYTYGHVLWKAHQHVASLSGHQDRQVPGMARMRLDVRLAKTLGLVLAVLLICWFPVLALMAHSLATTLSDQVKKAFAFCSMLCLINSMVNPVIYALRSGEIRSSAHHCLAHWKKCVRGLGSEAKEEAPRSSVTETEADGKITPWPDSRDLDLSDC

CCCC(C)(C)c1ccc2c(c1)OC(C)(C)[C@@H]1CC=C(C)C[C@@H]21 [JWH-133]
pKi: 7.74
